Experimental data from ChEMBL document CHEMBL1136641, “Anastatins A and B, new skeletal flavonoids with hepatoprotective activities from the desert plant Anastatica hierochuntica” (2003).

Columns and labels:
Mus musculus [1] = species: Mus musculus; experiment: Inhibitory activity derived from Anastatica hierochuntica on D-Gal-induced cytotoxicity in primary cultured mouse hepatocytes at a concentration of 3 uM; assay type: functional; settings: Hepatocyte
Mus musculus [2] = species: Mus musculus; experiment: Inhibitory activity derived from Anastatica hierochuntica on D-Gal-induced cytotoxicity in primary cultured mouse hepatocytes at a concentration of 30 uM; assay type: functional; settings: Hepatocyte
Mus musculus [3] = species: Mus musculus; experiment: Inhibitory activity derived from Anastatica hierochuntica on D-Gal-induced cytotoxicity in primary cultured mouse hepatocytes at a concentration of 10 uM; assay type: functional; settings: Hepatocyte
Mus musculus [4] = species: Mus musculus; experiment: Inhibitory activity derived from Anastatica hierochuntica on D-Gal-induced cytotoxicity in primary cultured mouse hepatocytes at a concentration of 0 uM; assay type: functional, Hepatocyte

Row | SMILES | inhibition at 3 µM (Mus musculus [1]) [%] | inhibition at 30 µM (Mus musculus [2]) [%] | inhibition at 10 µM (Mus musculus [3]) [%] | Inhibition (Mus musculus [4]) [%]
1 | COc1cc([C@H]2Oc3cc(O)cc(O)c3C(=O)[C@@H]2O)ccc1O | 4 | 36.7 | 7.3 | 0
2 | O=C1c2c(O)cc(O)cc2O[C@@H](c2ccc(O)c(O)c2)[C@H]1O [(+)-EPITAXIFOLIN] | 2.1 | 21.7 | 11 | 0
3 | O=C1c2c(O)cc(O)cc2O[C@H](c2ccc(O)c(O)c2)[C@H]1O [(+)-TAXIFOLIN] | 9.6 | 13 | 11.7 | 0
4 | O=C1C[C@@H](c2ccc(O)cc2)Oc2cc3oc4cc(O)c(O)cc4c3c(O)c21 [ANASTATIN A] | 17.2 | 46.2 | 31.5 | 0
5 | O=C1C[C@@H](c2ccc(O)cc2)Oc2c1c(O)cc1oc3cc(O)c(O)cc3c21 [ANASTATIN B] | 28.6 | 55 | 40.5 | 0
6 | O=C1c2c(O)cc(O)cc2O[C@H](c2ccc(O)cc2)[C@H]1O [DIHYDROKAEMPFEROL] | 7.8 | 33.2 | 14.2 | 0
7 | O=C1C[C@@H](c2ccc(O)c(O)c2)Oc2cc(O)cc(O)c21 [ERIODICTYOL] | 5.9 | 27.3 | 8.3 | 0
8 | O=C1C[C@@H](c2ccc(O)cc2)Oc2cc(O)cc(O)c21 [NARINGENIN] | 2.9 | 43.1 | 9.3 | 0
9 | COc1cc(C2Oc3cc([C@H]4Oc5cc(O)cc(O)c5C(=O)[C@@H]4O)ccc3OC2CO)ccc1O (stereo partly specified) [SILIBININ] | 4.8 | 45.2 | 7.7 | 0
